{"source": "patent US20160008490A1", "about": "“METAL CHELATE COMPOUNDS FOR BINDING TO THE PLATELET SPECIFIC GLYCOPROTEIN IIB/IIIA” (BAYER PHARMA AKTIENGESELLSCHAFT, priority 2013, published 2016)", "key": {"[1]": {"assay": "Relaxivity measurements at 1.41 T in water and plasma", "type": "physicochemical", "conditions": "relaxivity normalized to Gd, 37° C.", "experimental": "Relaxivity measurements at 1.41 T were performed using a MiniSpec mq60 spectrometer (Bruker Analytik, Karlsruhe) operating at a resonance frequency of 60 MHz and a temperature of 37° C. The T1 relaxation times were determined using the standard inversion recovery method. The T2 measurements were done by using the Carr-Purcell-Meiboom-Gill (CPMG) pulse sequence. All measurements were done at concentrations between 0.05 mM and 1 mM of Gd in water and plasma.\nThe relaxivities ri (where i=1, 2) were calculated on the basis of the measured relaxation rates Ri in water and plasma:\nwhere Ri(0) represent the relaxation rate of the respective solvent and CGd the concentration of the compound normalized to the Gadolium."}, "[2]": {"tested_on": "human activated platelets", "assay": "Binding of investigated compounds to human activated platelets (ICP-MS of Gd in pellet and supernatant)", "type": "cell-based", "conditions": "incubation concentration 1 μM molecule", "experimental": "For each experiment fresh blood was taken from a volunteer using 10 mL citrate-tubes (Sarstedt S-Monovette 02.1067.001, 10 mL, Citrate 3.13%). The 10 mL citrate-tubes were carefully inverted 10 times to mix blood and anticoagulant. The tubes were stored in an incubator at a temperature of 37° C. until centrifugation (Heraeus miniTherm CTT with integrated rotation- and turning device, turning speed: 19 rotations per minute, Heraeus Instruments GmbH, Hanau/Germany).\nFor plasma preparation tube centrifugation was carried out for 15 minutes at 1811 g at room temperature (Eppendorf, Centrifuge 5810R). Blood was centrifuged 15 minutes at 201 g at room temperature to produce platelet-rich plasma. The tubes were stored for 30 min at room temperature to get a better separation. The separated platelet-rich plasma was finally centrifuged for further 3 min at 453 g to remove the remaining erythrocytes. The platelet-rich plasma was activated using a final concentration of 5 μM Adenosindiphosphate (ADP, Sigma). The activated platelet-rich plasma was incubated 20 minutes with different concentrations of gadolinium-labeled compound and subsequently was centrifuged 3 minutes at 1360 g. 20 μL of incubation solution was taken to determine the concentration (n=3). […] The gadolinium concentration of supernatant and pellet was determined using an inductively coupled plasma mass spectrometry (ICP-MS Agilent 7500a).\nThe results for incubation concentration of 1 μM gadolinium-labeled compound are summarized in table 3 (in comparison to Gadovist® standard dose: 100 μmol Gd/kg body weight)."}, "[3]": {"target": "T1, human GP IIb/IIIa receptor (Homo sapiens, UniProt P05106+P08514)", "T1 construct": "human GPIIb/IIIa purified from human platelets was immobilized on a 96-well solid plate; purchased Enzyme Research Laboratories Inc. (South Bend, Ind.); host or cells: human platelets (natural source, detergent-solubilised)", "T1 sequence (P08514 32-887 limits assumed)": "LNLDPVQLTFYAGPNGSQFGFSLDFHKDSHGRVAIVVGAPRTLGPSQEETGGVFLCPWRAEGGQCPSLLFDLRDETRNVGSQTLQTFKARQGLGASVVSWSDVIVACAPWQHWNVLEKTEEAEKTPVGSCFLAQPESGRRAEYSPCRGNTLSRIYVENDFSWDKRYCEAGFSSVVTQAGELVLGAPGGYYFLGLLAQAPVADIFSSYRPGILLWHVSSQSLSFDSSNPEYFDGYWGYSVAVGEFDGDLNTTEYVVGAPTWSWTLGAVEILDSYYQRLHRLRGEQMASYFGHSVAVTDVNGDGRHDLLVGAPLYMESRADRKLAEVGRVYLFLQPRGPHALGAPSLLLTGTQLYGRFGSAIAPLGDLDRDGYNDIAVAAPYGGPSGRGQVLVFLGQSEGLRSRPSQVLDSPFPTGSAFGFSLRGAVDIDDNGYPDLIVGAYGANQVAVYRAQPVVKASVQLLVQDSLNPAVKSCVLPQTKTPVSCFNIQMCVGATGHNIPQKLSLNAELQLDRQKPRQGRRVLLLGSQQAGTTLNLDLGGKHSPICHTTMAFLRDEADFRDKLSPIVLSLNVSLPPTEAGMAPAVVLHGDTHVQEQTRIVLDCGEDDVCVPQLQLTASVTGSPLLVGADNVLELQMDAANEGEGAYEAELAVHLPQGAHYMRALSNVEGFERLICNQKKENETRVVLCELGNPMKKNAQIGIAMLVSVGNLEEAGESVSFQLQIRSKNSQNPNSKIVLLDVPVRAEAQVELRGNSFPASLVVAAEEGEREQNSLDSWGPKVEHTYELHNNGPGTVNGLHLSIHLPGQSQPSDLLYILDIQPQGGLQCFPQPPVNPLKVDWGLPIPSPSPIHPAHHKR", "T1 sequence (P08514 891-1039 partner limits assumed)": "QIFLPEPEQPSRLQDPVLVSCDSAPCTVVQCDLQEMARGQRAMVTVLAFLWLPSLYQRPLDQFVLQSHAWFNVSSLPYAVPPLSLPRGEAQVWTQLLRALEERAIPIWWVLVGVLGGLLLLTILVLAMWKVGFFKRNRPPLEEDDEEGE", "T1 sequence (P05106 27-788)": "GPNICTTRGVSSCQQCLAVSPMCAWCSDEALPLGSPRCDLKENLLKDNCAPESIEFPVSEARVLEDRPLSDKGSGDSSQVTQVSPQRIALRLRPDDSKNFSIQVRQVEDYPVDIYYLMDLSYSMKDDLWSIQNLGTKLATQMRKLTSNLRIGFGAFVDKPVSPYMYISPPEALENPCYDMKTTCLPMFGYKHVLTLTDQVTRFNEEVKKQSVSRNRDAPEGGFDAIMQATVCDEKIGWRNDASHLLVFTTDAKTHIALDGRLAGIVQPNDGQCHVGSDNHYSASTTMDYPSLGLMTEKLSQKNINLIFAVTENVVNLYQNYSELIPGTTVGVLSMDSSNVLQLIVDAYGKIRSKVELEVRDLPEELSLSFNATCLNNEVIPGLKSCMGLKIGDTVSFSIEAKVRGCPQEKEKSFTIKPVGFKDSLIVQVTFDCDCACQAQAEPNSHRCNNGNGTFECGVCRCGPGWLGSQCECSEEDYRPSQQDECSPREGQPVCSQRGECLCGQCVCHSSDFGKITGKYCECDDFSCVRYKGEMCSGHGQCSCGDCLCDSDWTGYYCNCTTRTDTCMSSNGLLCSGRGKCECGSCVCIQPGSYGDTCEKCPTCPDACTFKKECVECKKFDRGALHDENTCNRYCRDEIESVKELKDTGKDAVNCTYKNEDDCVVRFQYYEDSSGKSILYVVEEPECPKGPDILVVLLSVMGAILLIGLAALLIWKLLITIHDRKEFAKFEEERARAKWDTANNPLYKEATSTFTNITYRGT", "assay": "GPIIb/IIIa affinity assay (displacement of tritiated reference compound from immobilized receptor)", "type": "binding", "conditions": "purified human GPIIb/IIIa, 60 nM 3H-labeled reference compound, 1 hour at room temperature", "experimental": "Affinity assay: In the first step human GPIIb/IIIa purified from human platelets was immobilized on a 96-well solid plate. After 48 hours the plates were washed and the unspecific binding sites were blocked with Roti®-Block. 2. In the next step, the plates were simultaneously incubated with a tritium labeled known GPIIb/IIIa binder (^3H) mixed with increasing concentrations of the novel compounds (inhibitor). The higher the affinity of the inhibitor, the lower the bound fraction of the tritiated known GPIIb/IIIa binder (^3H) was. The fraction of tritiated compound (^3H), which is not displaced by inhibitor, was measured in a microplate scintillation counter.\nPurified human glycoprotein IIb/IIIa (20 mM Tris-HCl, 0.1 M NaCl, 0.1% Triton X-100, 1 mM CaCl2, 0.05% NaN3, 50% Glycerol, pH 7.4) was purchased from Enzyme Research Laboratories Inc. (South Bend, Ind.). The GPIIb/IIIa receptor was diluted in phosphate-buffered saline (Dulbecco's Phosphate Buffered Saline (D-PBS (+)) with calcium and magnesium, GIBCO®, Invitrogen) with 0.01% bovine serum albumin (albumin from bovine serum—lyophilized powder, 96%, Sigma).\nThe GPIIb/IIIa receptor was immobilized 48 hours at least (100 μL per well, 48 to maximum 96 hours) on a 96-well solid plate (Immuno Plate MaxiSorp™, Nunc, Roskilde, Denmark) at 277 K to 280 K and at a concentration of 0.1 μg per well to 1 μg per well. As negative control one row of the plate (n=8) was incubated just with 2% bovine serum albumin (200 μL per well, albumin from bovine serum—lyophilized powder, ≧96%, Sigma, diluted in D-PBS (+)).\nAfter washing three times with the wash buffer (230 μL per well, Dulbecco's Phosphate Buffered Saline (D-PBS (−)) contains no calcium or magnesium, GIBCO®, Invitrogen) residual exposed plastic and unspecific binding sites were blocked by incubating the plate with a special blocking solution (200 μL per well, Roti®-Block, Car Roth GmbH Co KG, Karlsruhe) containing 2% bovine serum albumin (Albumin from bovine serum—lyophilized powder, ≧96%, Sigma) 1 hour at room temperature.\nAfter washing three times with the wash buffer 50 μL of tritiated reference compound (60 nM, ^3H-labeled compound) and 50 μL of novel compound (inhibitor) were simultaneously added to each well and incubated for 1 hour at room temperature. Several concentrations of each novel inhibitor (0.1, 1, 2, 5, 10, 20 50, 100, 200, 500, 1000, 2000, 5000, 10000 and 20000 nM) were investigated. At each concentration of inhibitor a fourfold determination was performed.\nThe maximum value of tritiated reference compound was determined without addition of inhibitor (n=8). To exclude unspecific binding of ^3H— reference compound wells without glycoprotein receptors were used as negative controls (n=12, identically treated just without GPIIb/IIIa receptors).\nAfter one hour the plate was washed three times with phosphate-buffered saline (200 μL per well, Dulbecco's Phosphate Buffered Saline (D-PBS (+)), GIBCO®, Invitrogen). Following 140 μL of liquid scintillation cocktail (MicroScint™ 40 aqueous, Perkin Elmer) was added to each well. After 15 min at room temperature the plates were measured at the microplate scintillation counter (TopCount NXT v2.13, Perkin Elmer, Packard Instrument Company).\nIn the first step human glycoprotein IIb/IIIa, which is purified from human platelets, was immobilized on a 96-well solid plate. After 48 hours at least the plates were washed and the unspecific binding sites were blocked with Roti®-Block. In the next step, the plates were simultaneously incubated with a tritium labeled reference compound and the novel small molecule compound (inhibitor). The higher the affinity of the inhibitor, the smaller is the bound fraction of reference compound. The fraction of tritiated reference compound, which is not displaced by inhibitor, was measured at a microplate scintillation counter. The higher the affinity of the inhibitor, the smaller is the bound fraction of tritium-labeled reference compound. […]"}}}
{"smiles": "CC(C(=O)NCC(=O)NC[C@H](NC(=O)CNC(=O)C(C)N1CCN(CC(=O)O)CCN(CC(=O)O)CCN(CC(=O)O)CC1)C(=O)NC[C@H](NC(=O)[C@H](CNC(=O)CNC(=O)C(C)N1CCN(CC(=O)O)CCN(CC(=O)O)CCN(CC(=O)O)CC1)NC(=O)CNC(=O)C(C)N1CCN(CC(=O)O)CCN(CC(=O)O)CCN(CC(=O)O)CC1)C(=O)NCCCCc1cccc(C#Cc2cncc([C@H](CC(=O)O)NC(=O)[C@@H]3CCCN(C(=O)CCC4CCNCC4)C3)c2)c1)N1CCN(CC(=O)O)CCN(CC(=O)O)CCN(CC(=O)O)CC1", "note": "(some centres unmarked) [Example 8]", "values": [{"measurement": "r1 plasma", "setting": "[1]; plasma", "result": 14.5, "unit": "L/mmol/s"}, {"measurement": "r1 water", "setting": "[1]; water", "result": 12.6, "unit": "L/mmol/s"}, {"measurement": "Concentration within platelet pellet", "setting": "[2]; ADP-activated platelet-rich plasma, 20 minutes, pellet washed", "result": "26.7 ± 1.5", "unit": "μM Gd"}, {"measurement": "pellet/supernatant", "setting": "[2]; ratio of Gd concentration", "result": "254 ± 26 (n = 3)"}, {"measurement": "IC50", "setting": "[3]", "result": 0.021, "unit": "µM"}]}
